Results from patent US20260092061A1, “COMPOUNDS FOR TARGETED PROTEIN DEGRADATION” (Amphista Therapeutics Limited, priority 2022, published 2026).

Key:
BRD9 [1] = target: T1, BRD9 (Homo sapiens, UniProt Q9H8M2); test: BRD9 degradation, HiBiT-BRD9 KI HEK293 (LgBiT) cells, NanoGlo Lytic Endpoint assay (Assay Protocol 1); format: cell-based; conditions: BRD9 degradation; for Dmax / Dmax at 1 µM: HEK293; for Dmax at 1 µM: 1 μM compound at 6 h of treatment, read-out: Assay 1 Dmax
T1 sequence (Q9H8M2 1-597): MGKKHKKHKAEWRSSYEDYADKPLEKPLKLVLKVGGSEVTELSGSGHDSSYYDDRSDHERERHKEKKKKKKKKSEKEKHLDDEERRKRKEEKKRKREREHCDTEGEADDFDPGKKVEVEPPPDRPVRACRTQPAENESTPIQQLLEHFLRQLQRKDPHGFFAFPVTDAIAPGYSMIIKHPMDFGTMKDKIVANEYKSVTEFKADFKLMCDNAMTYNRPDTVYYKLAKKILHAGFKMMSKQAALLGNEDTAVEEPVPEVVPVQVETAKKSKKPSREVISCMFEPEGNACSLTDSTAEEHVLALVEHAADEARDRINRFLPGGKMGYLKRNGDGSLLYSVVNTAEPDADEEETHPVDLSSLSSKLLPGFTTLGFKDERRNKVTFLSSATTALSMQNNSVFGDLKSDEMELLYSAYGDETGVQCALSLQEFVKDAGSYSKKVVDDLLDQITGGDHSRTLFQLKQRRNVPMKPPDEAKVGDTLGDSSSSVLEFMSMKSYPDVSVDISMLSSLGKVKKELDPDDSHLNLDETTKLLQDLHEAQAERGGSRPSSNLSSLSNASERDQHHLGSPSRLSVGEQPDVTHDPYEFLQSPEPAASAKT
Procedure, shortened: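 HiBiT-tagged BRD9 knock-in HEK293 (LgBiT) cells exposed to compounds for 6 h at 37 °C, 5% CO2. Residual BRD9 measured by HiBiT lytic luminescence. % BRD9 remaining normalised to DMSO-treated cells (high) and no-cell wells (low).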

BRD9 [2] = target: T1, BRD9; test: Degradation of BRD9 (IF), immunofluorescence in MV4-11 cells, 24 hours (Assay Protocol 2); format: cell-based; design: A suspension of MV4-11 cells (ATCC CRL-9591) was prepared; host or cells: MV4-11
Procedure, shortened: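 % BRD9 remaining, scaled between DMSO (high) and 100 nM CFT-8634 (low) control wells, derives from mean Alexa 647 contrast in central nuclei by high-content imaging. MV4-11 cells had 24 h compound exposure at 37° C. before PFA fixation, Triton permeabilisation and anti-BRD9 E4Q3F immunostaining.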

[3] = Assay protocol 1, read-out: DC50
[4] = Assay protocol 1, read-out: Dmax
[5] = Assay protocol 2, BRD9 degradation, read-out: DC50
[6] = MV4-11, Assay protocol 2, BRD9 degradation, read-out: Dmax
[7] = Table 4, determined according to Assay Protocol 1, read-out: DC50^1
[8] = MV4-11, Table 4, BRD9 degradation, determined according to Assay Protocol 2, read-out: Dmax^2
[9] = Table 4, BRD9 degradation, determined according to Assay Protocol 2, read-out: DC50^2
[10] = Table 4, determined according to Assay Protocol 1, read-out: Dmax^1
[11] = Table 2, Assay Protocol 1, 6 h of treatment, read-out: Assay 1 DC50
[12] = MV4-11, 24 h, Table 2, BRD9 degradation (IF), Assay Protocol 2, MV4-11 cells, read-out: Assay 2 DCmax

Row | Compound | Dmax (BRD9 [1]; [4]) [%] | Dmax (BRD9 [2]; [6]) [%] | DC50 (BRD9 [1]; [7]) [nM] | Dmax (BRD9 [2]; [8]) [%] | DC50 (BRD9 [2]; [9]) [nM] | Dmax (BRD9 [1]; [10]) [%] | other results
1 | COc1cc(-c2cn(C)c(=O)c(C)c2C)cc(OC)c1CN1CCC2(CC1)CN(c1cccc(C3CCCN3C(=O)C(C#N)=CC(C)(C)C)c1)C2 (single isomer, unassigned) [Compound B43, 2-(2-(3-(7-(2,6-dimethoxy-4-(1,4,5-trimethyl-6-oxo-1,6-dihydropyridin-3-yl)benzyl)-2,7-diazaspiro[3.5]nonan-2-yl)phenyl)pyrrolidine-1-carbonyl)-4,4-dimethylpent-2-enenitrile] | 40 to 70 | 40 to 70 | – | – | – | – | DC50 (BRD9 [1]; [3]): < 1.25 nM; DC50 (BRD9 [2]; [5]): 1.25 to 10 nM
2 | COc1cc(-c2cn(C)c(=O)c(C)c2C)cc(OC)c1CN1CCN(c2cccc3c2CCN(C(=O)/C(C#N)=C/c2cccc(Br)n2)C3C)CC1 (single isomer, unassigned) [Compound C28, (E/Z)-3-(6-bromopyridin-2-yl)-2-(5-(4-(2,6-dimethoxy-4-(1,4,5-trimethyl-6-oxo-1,6-dihydropyridin-3-yl)benzyl)piperazin-1-yl)-1-methyl-1,2,3,4-tetrahydroisoquinoline-2-carbonyl)acrylonitrile] | 25 to 40 | 40 to 70 | – | – | – | – | DC50 (BRD9 [2]; [5]): 25 to 1000 nM
3 | COc1cc(-c2cn(C)c(=O)c(C)c2C)cc(OC)c1CN1CCC(Oc2cccc3c2CCN(C(=O)/C(C#N)=C/c2cccc(C(F)(F)F)n2)C3C)CC1 (centres unmarked) [B22] | > 75 | 40 to 70 | – | – | – | – | –
4 | COc1cc(-c2cn(C)c(=O)c(C)c2C)cc(OC)c1CN(C)C(=O)/C(C#N)=C/c1cccc(Br)n1 [BRD9ab, (E/Z)-3-(6-bromopyridin-2-yl)-2-cyano-N-(2,6-dimethoxy-4-(1,4,5-trimethyl-6-oxo-1,6-dihydropyridin-3-yl)benzyl)-N-methylacrylamide] | – | – | < 25 | 50 to 70 | < 25 | – | –
5 | COc1cc(-c2cn(C)c(=O)c(C)c2C)cc(OC)c1CN1CCN(C(=O)/C(C#N)=C/C(C)(C)C)CC12CC2 [BRD9f, (E/Z)-2-(4-(2,6-dimethoxy-4-(1,4,5-trimethyl-6-oxo-1,6-dihydropyridin-3-yl)benzyl)-4,7-diazaspiro[2.5]octane-7-carbonyl)-4,4-dimethylpent-2-enenitrile] | – | – | < 25 | 50 to 70 | < 25 | 50 to 70 | –
6 | COc1cc(-c2cn(C)c(=O)c(C)c2C)cc(OC)c1C(=O)N(C)C1CCN(C(=O)/C(C#N)=C/C(C)(C)C)CC1 [BRD9u] | – | – | – | 30 to 50 | < 25 | 30 to 50 | –
7 | COc1cc(-c2cn(C)c(=O)c3ccsc23)cc(OC)c1CN1CCN(C(=O)/C(C#N)=C/C(C)(C)C)CC1 [BRD9w, (E/Z)-2-(4-(2,6-dimethoxy-4-(5-methyl-4-oxo-4,5-dihydrothieno[3,2-c]pyridin-7-yl)benzyl)piperazine-1-carbonyl)-4,4-dimethylpent-2-enenitrile] | – | – | < 25 | > 70 | < 25 | > 70 | –
8 | COc1cc(-c2cn(C)c(=O)c3cnccc23)cc(OC)c1CN1CCC(N(C)c2cccc3c2CCN(C(=O)/C(C#N)=C/C(C)(C)C)C3C)CC1 (centres unmarked) [Compound A30] | – | – | – | – | – | – | Dmax at 1 µM (BRD9 [1]; Table 2, Assay Protocol 1): 40 to 70%; DC50 (BRD9 [1]; [11]): 1.25 to 10 nM; Dmax (BRD9 [2]; [12]): < 50%
9 | COc1cc(-c2cn(C)c(=O)c3cnccc23)cc(OC)c1CN1C2CCC1CN(Cc1cccc3c1CCN(C(=O)/C(C#N)=C/C(C)(C)C)C3C)C2 (centres unmarked) [Compound A49] | – | – | – | – | – | – | Dmax at 1 µM (BRD9 [1]; Table 2, Assay Protocol 1): 40 to 70%; DC50 (BRD9 [1]; [11]): 1.25 to 10 nM; Dmax (BRD9 [2]; [12]): 40 to 70%; DC50 (BRD9 [2]; Table 2, BRD9 degradation (IF), Assay Protocol 2, MV4-11 cells, read-out: Assay 2 DC50): < 1.25 nM
10 | COc1cc(-c2cn(C)c(=O)c(C)c2C)cc(OC)c1CN1CCN(C(=O)c2cccc(C3CCCN3C(=O)/C(C#N)=C/c3nccs3)c2)CC1 (centres unmarked) [Compound B23] | 70 to 75 | > 75 | – | – | – | – | DC50 (BRD9 [1]; [3]): 10 to 25 nM; DC50 (BRD9 [2]; [5]): 1.25 to 10 nM
11 | COc1cc(-c2cn(C)c(=O)c(C)c2C)cc(OC)c1CN1CCN(Cc2cccc(C3CCCN3C(=O)/C(C#N)=C/c3cccc(C(F)(F)F)n3)c2)CC1 (centres unmarked) [Compound B26] | > 75 | > 75 | – | – | – | – | DC50 (BRD9 [1]; [3]): 1.25 to 10 nM; DC50 (BRD9 [2]; [5]): < 1.25 nM
12 | COc1ccc([C@@H]2CN(C(=O)/C(C#N)=C/c3nccs3)C[C@H]2C(=O)N2CCN(Cc3c(OC)cc(-c4cn(C)c(=O)c(C)c4C)cc3OC)CC2)cc1 [Compound B27] | 40 to 70 | > 75 | – | – | – | – | DC50 (BRD9 [2]; [5]): 1.25 to 10 nM
13 | COc1cc(-c2cn(C)c(=O)c(C)c2C)cc(OC)c1CN1CCN(C(=O)[C@@H]2CN(C(=O)/C(C#N)=C/c3nccs3)C[C@H]2c2ccccc2)CC1 [Compound B28] | 25 to 40 | 40 to 70 | – | – | – | – | –
14 | COc1cc(-c2cn(C)c(=O)c(C)c2C)cc(OC)c1CN1CCN(Cc2cccc(C3CCCN3C(=O)/C(C#N)=C/c3nc(C(F)(F)F)cs3)c2)CC1 (centres unmarked) [Compound B56] | > 75 | > 75 | – | – | – | – | DC50 (BRD9 [1]; [3]): < 1.25 nM; DC50 (BRD9 [2]; [5]): < 1.25 nM
15 | CCCC(c1ccc(C(=O)N(C)CCC(=O)N2CCN(Cc3c(OC)cc(-c4cn(C)c(=O)c(C)c4C)cc3OC)CC2)cc1)N(C)C(=O)/C(C#N)=C/c1nccs1 (centres unmarked) [Compound B180] | 40 to 70 | 40 to 70 | – | – | – | – | –
16 | COc1cc(-c2cn(C)c(=O)c(C)c2C)cc(OC)c1CN1CCN(C(=O)C2CCCN(C(=O)/C(C#N)=C/c3nccs3)C2)CC1 (centres unmarked) [Compound B205] | – | – | – | 50 to 70 | 25 to 200 | 30 to 50 | –
17 | COc1cc(-c2cn(C)c(=O)c(C)c2C)cc(OC)c1CN1CCN(C(=O)C2CCCN(C(=O)/C(C#N)=C/C(C)(C)C)C2)CC1 (centres unmarked) [Compound B206] | – | – | 25 to 200 | 50 to 70 | 25 to 200 | > 70 | –
18 | COc1cc(-c2cn(C)c(=O)c(C)c2C)cc(OC)c1CN1CCN(C(=O)C2CC(C(C)C)CN(C(=O)/C(C#N)=C/C(C)(C)C)C2)CC1 (centres unmarked) [Compound B207] | – | – | 25 to 200 | > 70 | 25 to 200 | > 70 | –
19 | COc1ccc(C2CC(C(=O)N3CCN(Cc4c(OC)cc(-c5cn(C)c(=O)c(C)c5C)cc4OC)CC3)CN(C(=O)/C(C#N)=C/C(C)(C)C)C2)cc1 (centres unmarked) [Compound B208] | – | – | < 25 | > 70 | < 25 | > 70 | –
20 | COc1cc(-c2cn(C)c(=O)c(C)c2C)cc(OC)c1CN1CCN(C(=O)[C@@H]2CN(C(=O)/C(C#N)=C/c3nccs3)C[C@H]2C2CCCCC2)CC1 [Compound B209] | – | – | > 200 | > 70 | 25 to 200 | 30 to 50 | –
21 | COc1cc(-c2cn(C)c(=O)c(C)c2C)cc(OC)c1CN1CCN(C(=O)[C@@H]2CN(C(=O)/C(C#N)=C/C(C)(C)C)C[C@H]2C2CCCCC2)CC1 [Compound B210] | – | – | 25 to 200 | 50 to 70 | 25 to 200 | 50 to 70 | –
22 | COc1cc(-c2cn(C)c(=O)c(C)c2C)cc(OC)c1CN1CCN(C(=O)[C@@H]2CN(C(=O)/C(C#N)=C/c3ccc(F)cc3)C[C@H]2C2CCCCC2)CC1 [Compound B211] | – | – | > 200 | 50 to 70 | > 200 | > 70 | –
23 | COc1cc(-c2cn(C)c(=O)c(C)c2C)cc(OC)c1CN1CCN(C(=O)[C@@H]2CN(C(=O)/C(C#N)=C/C(C)(C)C)C[C@H]2C(C)C)CC1 [Compound B212] | – | – | 25 to 200 | 50 to 70 | 25 to 200 | 50 to 70 | –
